# Assay results reported in patent US4452778A, “Synergistic antibacterial compositions and method of treatment of infections caused by multiple antibiotic-resistant organisms” (Eli Lilly and Company, priority 1981, dated 1984).
# Structures can show the parent of a compound that is named as a salt. Where two headings read alike, the source gives them in different places.
# Assays:
# [1] = tested on: Pseudomonas aeruginosa; assay: Checkerboard broth dilution synergy study (mic); format: cell-based; settings: Table III; for MIC: Pseudomonas aeruginosa, read-out: mic, drug alone
# [2] = tested on: Serratia marcescens; assay: Checkerboard broth dilution synergy study (mic); format: cell-based; settings: Table III; for MIC: Serratia marcescens, read-out: mic, drug alone
# [3] = tested on: E. cloacae; assay: Checkerboard broth dilution synergy study (mic); format: cell-based; settings: Table III; for MIC: Enterobacter cloacae, read-out: mic, drug alone
# [4] = tested on: Klebsiella pneumoniae; assay: Checkerboard broth dilution synergy study (mic); format: cell-based; settings: Table III; for MIC: Klebsiella pneumoniae, read-out: mic, drug alone
# [5] = tested on: Proteus rettgeri; assay: Checkerboard broth dilution synergy study (mic); format: cell-based; settings: Table III; for MIC: Providencia rettgeri, read-out: mic, drug alone
# [6] = tested on: Pseudomonas maltophilia; assay: Checkerboard broth dilution synergy study (mic); format: cell-based; settings: Table III; for MIC: Stenotrophomonas maltophilia, read-out: mic, drug alone
# [7] = tested on: Acinetobacter sp.; assay: Checkerboard broth dilution synergy study (mic); format: cell-based; settings: Table III; for MIC: Acinetobacter, read-out: mic, drug alone
# [8] = tested on: Pseudomonas pseudomallei; assay: microbe, parasite or virus in culture; format: cell-based
# [9] = cited from earlier work; for average peak serum concentration: 1 hour
# [10] = 1 mg/kg intramuscular; cited from earlier work
smiles,measurement,setting,value
NCC[C@H](O)C(=O)N[C@@H]1C[C@H](N)[C@@H](O[C@H]2O[C@H](CN)[C@@H](O)[C@H](O)[C@H]2O)[C@H](O)[C@H]1O[C@H]1O[C@H](CO)[C@@H](O)[C@H](N)[C@H]1O [amikacin],MIC,[1]; isolate 316-2,16 µg/mL
same,MIC,[1]; isolate 362,16 µg/mL
same,MIC,[1]; isolate 363,32 µg/mL
same,MIC,[1]; isolate 610,1 µg/mL
same,MIC,[1]; isolate Brownlee,16 µg/mL
same,mic of each drug in combination I + A,[1]; isolate 316-2,2 µg/mL
same,mic of each drug in combination I + A,[1]; isolate 362,2 µg/mL
same,mic of each drug in combination I + A,[1]; isolate 363,2 µg/mL
same,mic of each drug in combination I + A,[1]; isolate 610,1 µg/mL
same,mic of each drug in combination I + A,[1]; isolate Brownlee,4 µg/mL
same,MIC,[2]; isolate 463-2,1 µg/mL
same,MIC,[2]; isolate 606,1 µg/mL
same,MIC,[2]; isolate 1414,8 µg/mL
same,MIC,[2]; isolate B377,2 µg/mL
same,MIC,[2]; isolate Ziegler,4 µg/mL
same,mic of each drug in combination I + A,[2]; isolate 463-2,< 0.5 µg/mL
same,mic of each drug in combination I + A,[2]; isolate 606,< 0.5 µg/mL
same,mic of each drug in combination I + A,[2]; isolate 1414,< 0.5 µg/mL
same,mic of each drug in combination I + A,[2]; isolate B377,< 0.5 µg/mL
same,mic of each drug in combination I + A,[2]; isolate Ziegler,2 µg/mL
same,MIC,[3]; isolate 228,2 µg/mL
same,MIC,[3]; isolate 1253,1 µg/mL
same,MIC,[3]; isolate 1296,4 µg/mL
same,MIC,[3]; isolate 1415,8 µg/mL
same,MIC,[3]; isolate McQuinn,32 µg/mL
same,mic of each drug in combination I + A,[3]; isolate 228,< 0.5 µg/mL
same,mic of each drug in combination I + A,[3]; isolate 1253,< 0.5 µg/mL
same,mic of each drug in combination I + A,[3]; isolate 1296,0.5 µg/mL
same,mic of each drug in combination I + A,[3]; isolate 1415,< 0.5 µg/mL
same,mic of each drug in combination I + A,[3]; isolate McQuinn,2 µg/mL
same,MIC,[4]; isolate 130,4 µg/mL
same,MIC,[4]; isolate 214-1,8 µg/mL
same,MIC,[4]; isolate 463,2 µg/mL
same,MIC,[4]; isolate 938,4 µg/mL
same,MIC,[4]; isolate 1231,4 µg/mL
same,mic of each drug in combination I + A,[4]; isolate 130,< 0.5 µg/mL
same,mic of each drug in combination I + A,[4]; isolate 214-1,< 0.5 µg/mL
same,mic of each drug in combination I + A,[4]; isolate 463,< 0.5 µg/mL
same,mic of each drug in combination I + A,[4]; isolate 938,< 0.5 µg/mL
same,mic of each drug in combination I + A,[4]; isolate 1231,2 µg/mL
same,MIC,[5]; isolate 53,8 µg/mL
same,MIC,[5]; isolate 136-1,4 µg/mL
same,MIC,[5]; isolate 768,16 µg/mL
same,MIC,[5]; isolate 997,8 µg/mL
same,MIC,[5]; isolate 1422,4 µg/mL
same,mic of each drug in combination I + A,[5]; isolate 53,< 0.5 µg/mL
same,mic of each drug in combination I + A,[5]; isolate 136-1,1 µg/mL
same,mic of each drug in combination I + A,[5]; isolate 768,< 0.5 µg/mL
same,mic of each drug in combination I + A,[5]; isolate 997,< 0.5 µg/mL
same,mic of each drug in combination I + A,[5]; isolate 1422,8 µg/mL
same,MIC,[6]; isolate 10,> 64 µg/mL
same,MIC,[6]; isolate 505,> 64 µg/mL
same,mic of each drug in combination I + A,[6]; isolate 10,< 0.5 µg/mL
same,mic of each drug in combination I + A,[6]; isolate 505,1 µg/mL
same,MIC,[7]; isolate 28-1,8 µg/mL
same,MIC,[7]; isolate 28-2,4 µg/mL
same,MIC,[7]; isolate 106,2 µg/mL
same,MIC,[7]; isolate 107,8 µg/mL
same,MIC,[7]; isolate 109,4 µg/mL
same,mic of each drug in combination I + A,[7]; isolate 28-1,8 µg/mL
same,mic of each drug in combination I + A,[7]; isolate 28-2,< 0.5 µg/mL
same,mic of each drug in combination I + A,[7]; isolate 106,< 0.5 µg/mL
same,mic of each drug in combination I + A,[7]; isolate 107,8 µg/mL
same,mic of each drug in combination I + A,[7]; isolate 109,< 0.5 µg/mL
same,MIC,"[8]; Burkholderia pseudomallei, read-out: mic, drug alone",32 µg/mL
same,mic of each drug in combination I + A,"[8]; Table III, isolate not named",8 µg/mL
same,average peak serum concentration,[9]; 250 mg (3.7 mg/kg) intramuscular,about 12 mcg/ml
same,serum level,"[9]; 250 mg (3.7 mg/kg) intramuscular, 10 hours",about 0.3 mcg/ml
same,average peak serum concentration,[9]; 375 mg (5 mg/kg) intramuscular,~16 µg/mL
same,serum level,"[9]; 375 mg (5 mg/kg) intramuscular, 10 hours",~1200 ng/mL
same,serum level,"[9]; 500 mg (7.5 mg/kg) infusion over 30 minutes, 30 minutes post-infusion",24000 ng/mL
same,serum level,"[9]; 500 mg (7.5 mg/kg) infusion over 30 minutes, 1 hour post-infusion",18000 ng/mL
same,serum level,"[9]; 500 mg (7.5 mg/kg) infusion over 30 minutes, 10 hours post-infusion",750 ng/mL
same,mean peak serum concentration,"[9]; 500 mg (7.5 mg/kg) infusion over 30 minutes, end of infusion",38 µg/mL
same,average peak serum concentration,[9]; 500 mg (7.5 mg/kg) intramuscular,~21 µg/mL
same,serum level,"[9]; 500 mg (7.5 mg/kg) intramuscular, 10 hours",~2100 ng/mL
NC[C@H]1O[C@H](O[C@H]2[C@H](O)[C@@H](O[C@H]3O[C@H](CO)[C@@H](O)[C@H](N)[C@H]3O)[C@H](N)C[C@@H]2N)[C@H](N)C[C@@H]1O [tobramycin sulfate],maximum serum concentrations,[10],about 4 mcg/ml
